Test results: ChEMBL document CHEMBL3632488, “Discovery of potent and selective cytotoxic activity of new quinazoline-ureas against TMZ-resistant glioblastoma multiforme (GBM)” (Eur J Med Chem, 2015)
pIC50: −log10 of the molar value. Activity calls are given as the source filed them. The rule behind the calls is not given here.

What was measured:
[1] = molecular target: Translocator protein (Rattus norvegicus) (UniProt P16257); test: Displacement of [3H]PK11195 from TSPO receptor in Sprague-Dawley rat cerebral cortex membrane at 1 uM by radiometric competitive assay; assay type: tissue-based
[2] = molecular target: Translocator protein (Rattus norvegicus) (UniProt P16257); test: Displacement of [3H]PK11195 from TSPO receptor in Sprague-Dawley rat cerebral cortex membrane at 100 nM by radiometric competitive assay; assay type: tissue-based
[3] = molecular target: Translocator protein (Rattus norvegicus) (UniProt P16257); test: Displacement of [3H]PK11195 from TSPO receptor in Sprague-Dawley rat cerebral cortex membrane at 10 nM by radiometric competitive assay; assay type: tissue-based
[4] = molecular target: Translocator protein (Rattus norvegicus) (UniProt P16257); test: Displacement of [3H]PK11195 from TSPO receptor in Sprague-Dawley rat cerebral cortex membrane at 1 nM by radiometric competitive assay; assay type: tissue-based
[5] = molecular target: Translocator protein (Rattus norvegicus) (UniProt P16257); settings: Sprague-Dawley, Cerebral cortex, Membrane, 0.1 nM
[6] = Antiproliferative activity against human GBM1 cells assessed as reduction in cell viability at 10 uM incubated for 72 hrs by WST-1 method; assay type: functional; settings: GBM1, 72 h
[7] = Antiproliferative activity against human GBM2 cells assessed as reduction in cell viability at 10 uM incubated for 72 hrs by WST-1 method; assay type: functional; settings: GBM2, 72 h
[8] = Antiproliferative activity against human GBM1 cells assessed as reduction in cell viability incubated for 72 hrs by WST-1 method; assay type: functional, cell-based; settings: GBM1, 72 h
[9] = Antiproliferative activity against human GBM2 cells assessed as reduction in cell viability incubated for 72 hrs by WST-1 method; assay type: functional, cell-based; settings: GBM2, 72 h
[10] = Cytotoxicity against normal human astrocytes assessed as cell viability incubated for 72 hrs by WST-1 method; assay type: cell-based; settings: Astrocyte
[11] = Selectivity index, ratio of IC50 for normal human astrocytes to IC50 for human GBM1 cells
[12] = Selectivity index, ratio of IC50 for normal human astrocytes to IC50 for human GBM2 cells
[13] = Antiproliferative activity against human GBM3 cells assessed as reduction in cell viability at 10 uM incubated for 72 hrs by WST-1 method; assay type: functional; settings: GBM3, 72 h
[14] = Antiproliferative activity against human GBM3 cells assessed as reduction in cell viability incubated for 72 hrs by WST-1 method; assay type: functional, cell-based; settings: GBM3, 72 h
[15] = Selectivity index, ratio of IC50 for normal human astrocytes to IC50 for human GBM3 cells
GBM1 = test: Induction of apoptosis in human GBM1 cells assessed as loss of mitochondrial membrane potential at 10 uM after 2 hrs by JC-1 staining based fluorescence microscopy; assay type: functional, cell-based
[16] = molecular target: Translocator protein (Rattus norvegicus) (UniProt P16257); test: Displacement of [3H]PK11195 from TSPO receptor in Sprague-Dawley rat cerebral cortex membrane at 10 uM by radiometric competitive assay; assay type: tissue-based
Translocator protein = Translocator protein (Rattus norvegicus, UniProt P16257); test: Displacement of [3H]PK11195 from TSPO receptor in Sprague-Dawley rat cerebral cortex membrane by radiometric competitive assay; assay type: tissue-based
GBM [17] = test: Tumoricidal effect in patient derived GBM 464T cells assessed as reduction in neurosphere formation at 20 uM after 1 to 2 weeks by 3D tumor clonogenic assay; assay type: functional, cell-based; settings: Homo sapiens
GBM [18] = test: Tumoricidal effect in patient derived GBM 096T cells assessed as reduction in neurosphere formation at 20 uM after 1 to 2 weeks by 3D tumor clonogenic assay; assay type: functional, cell-based; settings: Homo sapiens
GBM [19] = test: Tumoricidal effect in patient derived GBM 025T cells assessed as reduction in neurosphere formation at 20 uM after 1 to 2 weeks by 3D tumor clonogenic assay; assay type: functional, cell-based; settings: Homo sapiens
GBM [20] = test: Tumoricidal effect in patient derived GBM 448T cells assessed as reduction in neurosphere formation at 20 uM after 1 to 2 weeks by 3D tumor clonogenic assay; assay type: functional, cell-based; settings: Homo sapiens
GBM [21] = test: Tumoricidal effect in patient derived GBM 047T cells assessed as reduction in neurosphere formation at 20 uM after 1 to 2 weeks by 3D tumor clonogenic assay; assay type: functional, cell-based; settings: Homo sapiens

## CCC(C)N(C)C(=O)c1cc2ccccc2c(-c2ccccc2Cl)n1 (centres undefined)
[1]
  inhibition: 100%
[2]
  inhibition: 90%
[3]
  inhibition: 45%
[4]
  inhibition: 7%
[5]
  inhibition: 0%

## O=C(Nc1cccc(Cl)c1)Nc1cc2ncncc2cc1OCc1ccccc1Cl
[6]
  inhibition at 10 µM: 78.5%
[7]
  inhibition at 10 µM: 97.2%
[8]
  pIC50: 5.59
[9]
  pIC50: 5.68
[10]
  pIC50: < 5.00
[11]
  Ratio IC50: >4
[12]
  Ratio IC50: >4
[13]
  inhibition at 10 µM: 103%
[14]
  pIC50: 5.55
[15]
  Ratio IC50: >4
GBM1
  Activity: Active
[16]
  inhibition: 80%
[1]
  inhibition: 23%
[2]
  inhibition: 14%
[3]
  inhibition: 6%
[4]
  inhibition: 2%
Translocator protein
  pIC50: 5.55

## O=C(Nc1ccc(Cl)c(Cl)c1)Nc1cc2ncncc2cc1OCc1cccc(F)c1
[6]
  inhibition at 10 µM: 98.6%
[7]
  inhibition at 10 µM: 99.1%
[8]
  pIC50: 5.68
[9]
  pIC50: 5.82
[10]
  pIC50: 5.13
[11]
  Ratio IC50: 4
[12]
  Ratio IC50: 4
[13]
  inhibition at 10 µM: 104%
[14]
  pIC50: 5.70
[15]
  Ratio IC50: 4
GBM1
  Activity: Active
[16]
  inhibition: 86%
[1]
  inhibition: 42%
[2]
  inhibition: 16%
[3]
  inhibition: 8%
[4]
  inhibition: 3%
Translocator protein
  pIC50: 5.88

## Cn1nnc2c(C(N)=O)ncn2c1=O
GBM [17]
  Activity: Active
GBM [18]
  Activity: inactive
GBM [19]
  Activity: inactive
GBM [20]
  Activity: inactive
GBM [21]
  Activity: Active

## O=C(Nc1cc2ncncc2cc1OCc1cccc(F)c1)Nc1cccc2ccccc12
[6]
  inhibition at 10 µM: 92.6%
[7]
  inhibition at 10 µM: 94.9%
[8]
  pIC50: 5.89
[9]
  pIC50: 5.85
[10]
  pIC50: < 5.00
[11]
  Ratio IC50: >7.7
[12]
  Ratio IC50: >7.7
[13]
  inhibition at 10 µM: 92.9%
[14]
  pIC50: 5.92
[15]
  Ratio IC50: >7.7
GBM1
  Activity: Active
[16]
  inhibition: 75%
[1]
  inhibition: 53%
[2]
  inhibition: 34%
[3]
  inhibition: 9%
[4]
  inhibition: 3%
Translocator protein
  pIC50: 6.15

## O=C(Nc1cccc(Cl)c1)Nc1cc2ncncc2cc1OCc1cccc(Cl)c1
[6]
  inhibition at 10 µM: 85%
[7]
  inhibition at 10 µM: 98.2%
[8]
  pIC50: 5.48
[9]
  pIC50: 5.46
[10]
  pIC50: < 5.00
[11]
  Ratio IC50: >2.9
[12]
  Ratio IC50: >2.9
[13]
  inhibition at 10 µM: 100%
[14]
  pIC50: 5.46
[15]
  Ratio IC50: >2.9

## O=C(Nc1ccc(C(F)(F)F)cc1)Nc1cc2ncncc2cc1OCc1ccccc1
[6]
  inhibition at 10 µM: 92.2%
[7]
  inhibition at 10 µM: 95.2%
[8]
  pIC50: 5.24
[9]
  pIC50: 5.07
[10]
  pIC50: 5.04
[11]
  Ratio IC50: 1.5
[12]
  Ratio IC50: 1.5
[13]
  inhibition at 10 µM: 99.1%
[14]
  pIC50: 5.43
[15]
  Ratio IC50: 1.5

## CC[C@@]1(O)C(=O)OCc2c1cc1n(c2=O)Cc2cc3c(CN(C)C)c(O)ccc3nc2-1 [TOPOTECAN]
[6]
  inhibition at 10 µM: 88.7%
[7]
  inhibition at 10 µM: 97.8%
[8]
  pIC50: 6.34
[9]
  pIC50: 6.89
[10]
  pIC50: 6.80
[11]
  Ratio IC50: 0.5
[12]
  Ratio IC50: 0.5
[13]
  inhibition at 10 µM: 88.7%
[14]
  pIC50: 6.42
[15]
  Ratio IC50: 0.5

## O=C(Nc1cc2ncncc2cc1OCc1ccc(Cl)cc1)Nc1cccc2ccccc12
[6]
  inhibition at 10 µM: 97.1%
[7]
  inhibition at 10 µM: 98.5%
[8]
  pIC50: 5.10
[9]
  pIC50: 5.35
[10]
  pIC50: < 5.00
[11]
  Ratio IC50: >1.5
[12]
  Ratio IC50: >1.5
[13]
  inhibition at 10 µM: 98.8%
[14]
  pIC50: 5.11
[15]
  Ratio IC50: >1.5

## CC/C(=C(\c1ccccc1)c1ccc(OCCN(C)C)cc1)c1ccccc1 [TAMOXIFEN]
[6]
  inhibition at 10 µM: 98.4%
[7]
  inhibition at 10 µM: 101%
[8]
  pIC50: 5.12
[9]
  pIC50: 5.46
[10]
  pIC50: < 5.00
[11]
  Ratio IC50: >2.1
[12]
  Ratio IC50: >2.1
[13]
  inhibition at 10 µM: 95.7%
[14]
  pIC50: 5.33
[15]
  Ratio IC50: >2.1

## N#CC(C#N)=NNc1cccc(Cl)c1
GBM1
  Activity: Active

## O=C(Nc1cccc(F)c1)Nc1cc2ncncc2cc1OCc1cccc(Cl)c1
[6]
  inhibition at 10 µM: 73.2%
[7]
  inhibition at 10 µM: 76.3%
[8]
  pIC50: 5.43
[9]
  pIC50: 5.11
[10]
  pIC50: < 5.00
[11]
  Ratio IC50: >1.5
[12]
  Ratio IC50: >1.5
[13]
  inhibition at 10 µM: 54.5%
[14]
  pIC50: 5.08
[15]
  Ratio IC50: >1.5

## O=C(Nc1ccccc1F)Nc1cc2ncncc2cc1OCc1ccccc1F
[6]
  inhibition at 10 µM: 80.7%
[7]
  inhibition at 10 µM: 92.4%
[8]
  pIC50: 5.38
[9]
  pIC50: 5.44
[10]
  pIC50: 5.00
[11]
  Ratio IC50: 2.6
[12]
  Ratio IC50: 2.6
[13]
  inhibition at 10 µM: 94.6%
[14]
  pIC50: 5.42
[15]
  Ratio IC50: 2.6

## O=C(Nc1ccc(Cl)c(Cl)c1)Nc1cc2ncncc2cc1OCc1ccccc1Cl
[6]
  inhibition at 10 µM: 87.5%
[7]
  inhibition at 10 µM: 98.9%
[8]
  pIC50: 5.74
[9]
  pIC50: 5.89
[10]
  pIC50: < 5.00
[11]
  Ratio IC50: >7
[12]
  Ratio IC50: >7
[13]
  inhibition at 10 µM: 104%
[14]
  pIC50: 5.92
[15]
  Ratio IC50: >7
GBM1
  Activity: Active
[16]
  inhibition: 84%
[1]
  inhibition: 57%
[2]
  inhibition: 37%
[3]
  inhibition: 19%
[4]
  inhibition: 1%
Translocator protein
  pIC50: 6.35

## CN1C(=O)CN=C(c2ccccc2)c2cc(Cl)ccc21
[16]
  inhibition: 97%
[1]
  inhibition: 85%
[2]
  inhibition: 34%
[3]
  inhibition: 2%
[4]
  inhibition: 0%

## O=C(Nc1cc2ncncc2cc1OCc1ccccc1Cl)Nc1cccc2ccccc12
[6]
  inhibition at 10 µM: 97.3%
[7]
  inhibition at 10 µM: 98.1%
[8]
  pIC50: 5.54
[9]
  pIC50: 5.54
[10]
  pIC50: 5.64
[11]
  Ratio IC50: 1
[12]
  Ratio IC50: 1
[13]
  inhibition at 10 µM: 100%
[14]
  pIC50: 5.57
[15]
  Ratio IC50: 1
